# From PubChem BioAssay (NCI)
# “And” between values parts separate entries of the source, which are not always exact repeats. Equal entries are not always repeated.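 96-well plates; 48 h exposure; 5 concentrations. Endpoints by linear interpolation between flanking doses. Not reached: highest tested concentration assigned. GI50 = concentration required for 50% inhibition of growth. TGI denotes the concentration required for complete inhibition of growth.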
# Tests used:
# Assay in all cases: NCI tumour cell line growth inhibition, 48 h
# [1] = system: 786-0 renal
# [2] = system: A498 renal
# [3] = system: A549 NSCLC
# [4] = system: ACHN renal
# [5] = system: BT-549 breast
# [6] = system: CAKI-1 renal
# [7] = system: CCRF-CEM leukemia
# [8] = system: COLO 205 colon
# [9] = system: DLD-1 colon
# [10] = system: DMS 114 small cell lung
# [11] = system: DMS 273 small cell lung
# [12] = system: DU-145 prostate
# [13] = system: EKVX NSCLC
# [14] = system: HCC-2998 colon
# [15] = system: HCT-116 colon
# [16] = system: HCT-15 colon
# [17] = system: HL-60(TB) leukemia
# [18] = system: HOP-18 NSCLC
# [19] = system: HOP-62 NSCLC
# [20] = system: HOP-92 NSCLC
# [21] = system: HS 578T breast
# [22] = system: IGROV1 ovarian
# [23] = system: K-562 leukemia
# [24] = system: KM12 colon
# [25] = system: KM20L2 colon
# [26] = system: LOX IMVI melanoma
# [27] = system: LXFL 529 NSCLC
# [28] = system: M14 melanoma
# [29] = system: M19-MEL melanoma
# [30] = system: MALME-3M melanoma
# [31] = system: MCF7 breast
# [32] = system: MDA-MB-231 breast
# [33] = system: MDA-MB-435
# [34] = system: MDA-N
# [35] = system: MOLT-4 leukemia
# [36] = system: NCI-H226 lung
# [37] = system: NCI-H23 lung
# [38] = system: NCI-H460 lung
# [39] = system: NCI-H522 lung
# [40] = system: OVCAR-3 ovarian
# [41] = system: OVCAR-4 ovarian
# [42] = system: OVCAR-5 ovarian
# [43] = system: OVCAR-8 ovarian
# [44] = system: P388 leukemia
# [45] = system: P388/ADR leukemia
# [46] = system: PC-3 prostate
# [47] = system: RPMI-8226 leukemia
# [48] = system: RXF 393 renal
# [49] = system: SF-268 CNS
# [50] = system: SF-295 CNS
# [51] = system: SF-539 CNS
# [52] = system: SK-MEL-2 melanoma
# [53] = system: SK-MEL-28 melanoma
# [54] = system: SK-MEL-5 melanoma
# [55] = system: SK-OV-3 ovarian
# [56] = system: SN12C renal
# [57] = system: SN12K1 renal
# [58] = system: SNB-19 CNS
# [59] = system: SNB-75 CNS
# [60] = system: SNB-78 CNS
# [61] = system: SR leukemia
# [62] = system: SW-620 colon
# [63] = system: T-47D breast
# [64] = system: TK-10 renal
# [65] = system: U251 CNS
# [66] = system: UACC-257 melanoma
# [67] = system: UACC-62 melanoma
# [68] = system: XF 498 CNS
structure (smiles),measurement,setting,value
CN(C)CC1CCCC(CN(C)C)C1=O (stereo unspecified),TGI,[1],5.94 µM and 4.61 µM
same,GI50,[2],19.1 µM and > 100 µM
same,TGI,[2],34.5 µM and > 100 µM
same,TGI,[3],48.1 µM and > 63.6 µM
same,TGI,[4],2.92 µM and 3.52 µM
same,GI50,[5],3.24 µM and 19.4 µM
same,TGI,[5],10.7 µM and 38 µM
same,GI50,[6],1.39 µM and 0.259 µM
same,TGI,[6],3.12 µM and 0.858 µM
same,GI50,[7],0.155 µM and 0.0588 µM
same,TGI,[7],0.559 µM and 0.21 µM
same,TGI,[8],3.4 µM and 9.47 µM
same,TGI,[9],4.14 µM
same,TGI,[10],3.87 µM
same,TGI,[11],26.8 µM
same,TGI,[12],29.4 µM
same,TGI,[13],17.8 µM and 14.1 µM
same,TGI,[14],29.5 µM and 36 µM
same,GI50,[15],1.66 µM and 3.36 µM
same,TGI,[15],3.64 µM and 7.98 µM
same,GI50,[16],1.28 µM and 8.54 µM
same,GI50,[17],0.612 µM and 2.85 µM
same,TGI,[17],2.03 µM and 7.45 µM
same,TGI,[18],3.32 µM
same,GI50,[19],> 73.1 µM and 20.8 µM
same,TGI,[19],> 90.6 µM and 43 µM
same,TGI,[20],2.26 µM
same,GI50,[21],3.26 µM and 26.5 µM
same,TGI,[21],> 100 µM and 80.3 µM
same,TGI,[22],37.2 µM and 38.4 µM
same,GI50,[23],0.119 µM and 0.677 µM
same,TGI,[23],0.601 µM
same,GI50,[24],6.05 µM and 17.2 µM
same,TGI,[24],16.9 µM and 33.3 µM
same,TGI,[25],13.2 µM
same,GI50,[26],3.4 µM and 8.45 µM
same,TGI,[26],7.09 µM and 30.3 µM
same,TGI,[27],0.998 µM
same,GI50,[28],1.48 µM and 6.11 µM
same,TGI,[28],3.03 µM and 11.7 µM
same,TGI,[29],7.24 µM
same,GI50,[30],0.653 µM and 2.61 µM
same,TGI,[30],1.61 µM and 6.54 µM
same,GI50,[31],0.575 µM and 3.45 µM
same,TGI,[31],6 µM and > 41.7 µM
same,GI50,[32],3.9 µM and 16 µM
same,TGI,[32],13 µM and 31.2 µM
same,GI50,[33],19.6 µM and 8.54 µM
same,TGI,[33],39.1 µM and 23.8 µM
same,TGI,[34],25.6 µM and 28.4 µM
same,GI50,[35],0.293 µM
same,TGI,[35],1.14 µM and 2.08 µM
same,GI50,[36],18.6 µM and > 46.5 µM
same,TGI,[36],35.6 µM and > 69.2 µM
same,GI50,[37],5.35 µM and 20.7 µM
same,TGI,[37],18.5 µM and 43.4 µM
same,TGI,[38],38.5 µM and 33.8 µM
same,GI50,[39],0.179 µM and 1.06 µM
same,TGI,[39],0.443 µM and 3.46 µM
same,TGI,[40],5.47 µM and 3.64 µM
same,GI50,[41],1.89 µM and 7.01 µM
same,TGI,[41],3.51 µM and 18.5 µM
same,TGI,[42],32.7 µM and 33.7 µM
same,TGI,[43],5.86 µM and 10.6 µM
same,TGI,[44],2.13 µM
same,TGI,[45],0.226 µM
same,GI50,[46],18.7 µM and 4.98 µM
same,TGI,[46],33.4 µM and 16.9 µM
same,GI50,[47],0.125 µM and 0.458 µM
same,TGI,[47],1.53 µM and 2.36 µM
same,TGI,[48],3.29 µM and 3.25 µM
same,GI50,[49],11.5 µM and 23.4 µM
same,TGI,[49],31.7 µM and 65.6 µM
same,GI50,[50],19.3 µM and > 100 µM
same,TGI,[50],35.7 µM and > 100 µM
same,GI50,[51],11.3 µM and 1.75 µM
same,TGI,[51],21.9 µM and 5.78 µM
same,TGI,[52],20.6 µM and 35.2 µM
same,GI50,[53],2.17 µM and 18.3 µM
same,TGI,[53],5.21 µM and 33.8 µM
same,TGI,[54],21 µM and 30.3 µM
same,GI50,[55],17.8 µM and > 44 µM
same,TGI,[55],31.8 µM and > 58.3 µM
same,GI50,[56],2.58 µM and 7.36 µM
same,TGI,[56],5.78 µM and 18.4 µM
same,TGI,[57],30.4 µM
same,TGI,[58],68 µM and > 65.4 µM
same,TGI,[59],29.8 µM and 31.1 µM
same,TGI,[60],10.3 µM
same,GI50,[61],0.254 µM and 0.803 µM
same,TGI,[61],1.64 µM
same,GI50,[62],0.367 µM
same,TGI,[62],0.639 µM and 1.92 µM
same,TGI,[63],4.23 µM and 3.38 µM
same,GI50,[64],2.81 µM and 0.861 µM
same,TGI,[64],7.88 µM and 2.63 µM
same,TGI,[65],23 µM and 34.6 µM
same,TGI,[66],4.49 µM and 5.8 µM
same,GI50,[67],8.32 µM and 18 µM
same,TGI,[67],18.3 µM and 33.4 µM
same,TGI,[68],3.69 µM
